Assay results published in patent US12077503B2, “Substituted cyclic amides and their use as herbicides” (FMC CORPORATION, priority 2015, dated 2024).

Columns and labels:
Type in all cases: in vivo
[1] = tested on: barnyardgrass (Echinochloa crus-galli); experiment: Test G Post-Emergence Protocol; settings: Echinochloa crus-galli, post-emergence, 312 h, read-out: Barnyardgrass damage rating; for pest or weed control at 15.625 g/ha: 15.625 g ai/ha, evaluated after 13 days (100=total damage to plant; 0=no damage to plant); for pest or weed control at 62.5 g/ha: 62.5 g ai/ha; for pest or weed control at 62.5 g/ha / pest or weed control at 250 g/ha: evaluated after 13 days, 100=total damage to plant, 0=no damage to plant; for pest or weed control at 250 g/ha: 250 g ai/ha
Outline: (§1)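 Scores run 0 (no damage) to 100 (total damage) and were taken 13 days after spraying. Plants had been raised in pots for 8 days under glasshouse control (24/16 °C, 14 h photoperiod, 65% humidity) and then treated at 15.625, 62.5 or 250 g/ha.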

[2] = tested on: redroot pigweed (Amaranthus retroflexus); experiment: Test G Post-Emergence Protocol; settings: Amaranthus retroflexus, post-emergence, 312 h, read-out: Pigweed, Redroot damage rating; for pest or weed control at 15.625 g/ha: 15.625 g ai/ha, evaluated after 13 days (100=total damage to plant; 0=no damage to plant); for pest or weed control at 62.5 g/ha: 62.5 g ai/ha; for pest or weed control at 62.5 g/ha / pest or weed control at 250 g/ha: evaluated after 13 days, 100=total damage to plant, 0=no damage to plant; for pest or weed control at 250 g/ha: 250 g ai/ha
Outline: as §1

corn (Zea mays) [3] = experiment: Test G Post-Emergence Protocol; settings: Zea mays, post-emergence, 312 h, read-out: Corn damage rating; for plant injury at 15.625 g/ha: 15.625 g ai/ha, evaluated after 13 days (100=total damage to plant; 0=no damage to plant); for plant injury at 62.5 g/ha: 62.5 g ai/ha; for plant injury at 62.5 g/ha / plant injury at 250 g/ha: evaluated after 13 days, 100=total damage to plant, 0=no damage to plant; for plant injury at 250 g/ha: 250 g ai/ha
Outline: as §1

[4] = tested on: velvetleaf (Abutilon theophrasti); experiment: Test G Post-Emergence Protocol; settings: Abutilon theophrasti, post-emergence, 312 h, read-out: Velvetleaf damage rating; for pest or weed control at 15.625 g/ha: 15.625 g ai/ha, evaluated after 13 days (100=total damage to plant; 0=no damage to plant); for pest or weed control at 62.5 g/ha: 62.5 g ai/ha; for pest or weed control at 62.5 g/ha / pest or weed control at 250 g/ha: evaluated after 13 days, 100=total damage to plant, 0=no damage to plant; for pest or weed control at 250 g/ha: 250 g ai/ha
Outline: as §1

[5] = tested on: ivy-leaved morning glory (Ipomoea hederacea); experiment: Test G Post-Emergence Protocol; settings: Ipomoea, post-emergence, 312 h, read-out: Morningglory, Ivy-leaved damage rating; for pest or weed control at 15.625 g/ha: 15.625 g ai/ha, evaluated after 13 days (100=total damage to plant; 0=no damage to plant); for pest or weed control at 62.5 g/ha: 62.5 g ai/ha; for pest or weed control at 62.5 g/ha / pest or weed control at 250 g/ha: evaluated after 13 days, 100=total damage to plant, 0=no damage to plant; for pest or weed control at 250 g/ha: 250 g ai/ha
Outline: as §1

[6] = tested on: giant foxtail (Setaria faberi); experiment: Test G Post-Emergence Protocol; settings: Setaria faberi, post-emergence, 312 h, read-out: Foxtail, Giant damage rating; for pest or weed control at 15.625 g/ha: 15.625 g ai/ha, evaluated after 13 days (100=total damage to plant; 0=no damage to plant); for pest or weed control at 62.5 g/ha: 62.5 g ai/ha; for pest or weed control at 62.5 g/ha / pest or weed control at 250 g/ha: evaluated after 13 days, 100=total damage to plant, 0=no damage to plant; for pest or weed control at 250 g/ha: 250 g ai/ha
Outline: as §1

[7] = tested on: barnyardgrass (Echinochloa crus-galli); experiment: Test G Pre-Emergence Protocol; settings: Echinochloa crus-galli, pre-emergence, 312 h, evaluated after 13 days; for pest or weed control at 15.625 g/ha: 15.625 g ai/ha; for pest or weed control at 15.625 g/ha / pest or weed control at 250 g/ha: read-out: Barnyardgrass damage rating (100=total damage to plant; 0=no damage to plant); for pest or weed control at 62.5 g/ha: 62.5 g ai/ha, 100=total damage to plant, 0=no damage to plant, read-out: Barnyardgrass damage rating; for pest or weed control at 250 g/ha: 250 g ai/ha
Outline: (§2)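 Pots of seeds in standard soil were grown for one day in a glasshouse (24/16 °C day/night, 14 h light, 65% humidity), then sprayed with compound in acetone/water 50:50 with 0.5% Tween 20 at 15.625, 62.5 or 250 g/ha. Damage was scored after 13 days on a 0 (none) to 100 (total) scale.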

[8] = tested on: redroot pigweed (Amaranthus retroflexus); experiment: Test G Pre-Emergence Protocol; settings: Amaranthus retroflexus, pre-emergence, 312 h, evaluated after 13 days; for pest or weed control at 15.625 g/ha: 15.625 g ai/ha; for pest or weed control at 15.625 g/ha / pest or weed control at 250 g/ha: read-out: Pigweed, Redroot damage rating (100=total damage to plant; 0=no damage to plant); for pest or weed control at 62.5 g/ha: 62.5 g ai/ha, 100=total damage to plant, 0=no damage to plant, read-out: Pigweed, Redroot damage rating; for pest or weed control at 250 g/ha: 250 g ai/ha
Outline: as §2

corn (Zea mays) [9] = experiment: Test G Pre-Emergence Protocol; settings: Zea mays, pre-emergence, 312 h, evaluated after 13 days; for plant injury at 15.625 g/ha: 15.625 g ai/ha; for plant injury at 15.625 g/ha / plant injury at 250 g/ha: read-out: Corn damage rating (100=total damage to plant; 0=no damage to plant); for plant injury at 62.5 g/ha: 62.5 g ai/ha, 100=total damage to plant, 0=no damage to plant, read-out: Corn damage rating; for plant injury at 250 g/ha: 250 g ai/ha
Outline: as §2

[10] = tested on: velvetleaf (Abutilon theophrasti); experiment: Test G Pre-Emergence Protocol; settings: Abutilon theophrasti, pre-emergence, 312 h, evaluated after 13 days; for pest or weed control at 15.625 g/ha: 15.625 g ai/ha; for pest or weed control at 15.625 g/ha / pest or weed control at 250 g/ha: read-out: Velvetleaf damage rating (100=total damage to plant; 0=no damage to plant); for pest or weed control at 62.5 g/ha: 62.5 g ai/ha, 100=total damage to plant, 0=no damage to plant, read-out: Velvetleaf damage rating; for pest or weed control at 250 g/ha: 250 g ai/ha
Outline: as §2

[11] = tested on: ivy-leaved morning glory (Ipomoea hederacea); experiment: Test G Pre-Emergence Protocol; settings: Ipomoea, pre-emergence, 312 h, evaluated after 13 days; for pest or weed control at 15.625 g/ha: 15.625 g ai/ha; for pest or weed control at 15.625 g/ha / pest or weed control at 250 g/ha: read-out: Morningglory, Ivy-leaved damage rating (100=total damage to plant; 0=no damage to plant); for pest or weed control at 62.5 g/ha: 62.5 g ai/ha, 100=total damage to plant, 0=no damage to plant, read-out: Morningglory, Ivy-leaved damage rating; for pest or weed control at 250 g/ha: 250 g ai/ha
Outline: as §2

[12] = tested on: giant foxtail (Setaria faberi); experiment: Test G Pre-Emergence Protocol; settings: Setaria faberi, pre-emergence, 312 h, evaluated after 13 days; for pest or weed control at 15.625 g/ha: 15.625 g ai/ha; for pest or weed control at 15.625 g/ha / pest or weed control at 250 g/ha: read-out: Foxtail, Giant damage rating (100=total damage to plant; 0=no damage to plant); for pest or weed control at 62.5 g/ha: 62.5 g ai/ha, 100=total damage to plant, 0=no damage to plant, read-out: Foxtail, Giant damage rating; for pest or weed control at 250 g/ha: 250 g ai/ha
Outline: as §2

SMILES | pest or weed control at 15.625 g/ha [1] [%] | pest or weed control at 62.5 g/ha [1] [%] | pest or weed control at 250 g/ha [1] [%] | pest or weed control at 15.625 g/ha [2] [%] | pest or weed control at 62.5 g/ha [2] [%] | pest or weed control at 250 g/ha [2] [%] | plant injury at 15.625 g/ha (corn (Zea mays) [3]) [%] | plant injury at 62.5 g/ha (corn (Zea mays) [3]) [%] | plant injury at 250 g/ha (corn (Zea mays) [3]) [%] | pest or weed control at 15.625 g/ha [4] [%] | pest or weed control at 62.5 g/ha [4] [%] | pest or weed control at 250 g/ha [4] [%] | pest or weed control at 15.625 g/ha [5] [%] | pest or weed control at 62.5 g/ha [5] [%] | pest or weed control at 250 g/ha [5] [%] | pest or weed control at 15.625 g/ha [6] [%] | pest or weed control at 62.5 g/ha [6] [%] | pest or weed control at 250 g/ha [6] [%] | pest or weed control at 15.625 g/ha [7] [%] | pest or weed control at 62.5 g/ha [7] [%] | further results
CCOc1ccc([C@@H]2CN(C)C(=O)[C@H]2C(=O)Nc2cccc(F)c2C)cc1Cl (racemic) [Compound 1803] | 0 | 0 | 70 | 0 | 0 | 20 | 0 | 0 | 0 | 0 | 0 | 0 | 0 | 10 | 10 | 20 | 70 | 80 | 20 | 70 | pest or weed control at 250 g/ha [7]: 90%; pest or weed control at 15.625 g/ha [8]: 30%; pest or weed control at 62.5 g/ha [8]: 0%; pest or weed control at 250 g/ha [8]: 40%; plant injury at 15.625 g/ha (corn (Zea mays) [9]): 0%; plant injury at 62.5 g/ha (corn (Zea mays) [9]): 0%; plant injury at 250 g/ha (corn (Zea mays) [9]): 30%; pest or weed control at 15.625 g/ha [10]: 10%; pest or weed control at 62.5 g/ha [10]: 0%; pest or weed control at 250 g/ha [10]: 20%; pest or weed control at 15.625 g/ha [11]: 0%; pest or weed control at 62.5 g/ha [11]: 0%; pest or weed control at 250 g/ha [11]: 0%; pest or weed control at 15.625 g/ha [12]: 70%; pest or weed control at 62.5 g/ha [12]: 90%; pest or weed control at 250 g/ha [12]: 90%
CN1C[C@H](c2ccc(C(F)(F)F)cc2)[C@@H](C(=O)Nc2cccc3c2S(=O)(=O)CC3)C1=O (racemic) [Compound 1737] | 0 | 0 | 0 | 0 | 0 | 0 | 0 | 0 | 0 | 0 | 0 | 0 | 0 | 0 | 0 | 0 | 0 | 0 | 0 | 0 | pest or weed control at 250 g/ha [7]: 0%; pest or weed control at 15.625 g/ha [8]: 0%; pest or weed control at 62.5 g/ha [8]: 0%; pest or weed control at 250 g/ha [8]: 0%; plant injury at 15.625 g/ha (corn (Zea mays) [9]): 0%; plant injury at 62.5 g/ha (corn (Zea mays) [9]): 0%; plant injury at 250 g/ha (corn (Zea mays) [9]): 0%; pest or weed control at 15.625 g/ha [10]: 0%; pest or weed control at 62.5 g/ha [10]: 0%; pest or weed control at 250 g/ha [10]: 0%; pest or weed control at 15.625 g/ha [11]: 0%; pest or weed control at 62.5 g/ha [11]: 0%; pest or weed control at 250 g/ha [11]: 0%; pest or weed control at 15.625 g/ha [12]: 0%; pest or weed control at 62.5 g/ha [12]: 0%; pest or weed control at 250 g/ha [12]: 0%
